Source: patent US10870647B2, “Imidazopyridine derivative, method for preparing same, and pharmaceutical composition containing same as active ingredient for preventing or treating cancer” (DAEGU-GYEONGBUK MEDICAL INNOVATION FOUNDATION, priority 2016, dated 2020)

How the values were obtained:
[1] = test system: Huh7; assay: Cancer cell proliferation inhibition, MTS assay, 72 hours; type: cell-based; conditions: Homo sapiens, Huh-7
How it was run: (§1)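 Cells seeded at 3,000 cells/well in line-specific medium and grown 24 h at 37° C, 5% CO2, then exposed 72 h to serially diluted compound from 50 μM (0.05% DMSO). MTS/PMS added for 2 h at 37° C; OD450 read; IC50 from inhibition versus solvent control, three data sets.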

[2] = test system: Ret^Parental (Ba/F3); assay: as above; type: cell-based; conditions: Mus musculus, BaF3
How it was run: as §1

[3] = target: T1, Ret^V804M (Ba/F3) (Homo sapiens, UniProt P07949, V804M, cells depend on it, form not given); assay: as above; type: cell-based; conditions: read-out: Ret^V804M (Ba/F3) IC50
T1 construct: candidates are KIF5B, CCDC6, TEL (ETV6), or none (full-length RET)
T1 sequence (P07949 whole entry V804M, form open): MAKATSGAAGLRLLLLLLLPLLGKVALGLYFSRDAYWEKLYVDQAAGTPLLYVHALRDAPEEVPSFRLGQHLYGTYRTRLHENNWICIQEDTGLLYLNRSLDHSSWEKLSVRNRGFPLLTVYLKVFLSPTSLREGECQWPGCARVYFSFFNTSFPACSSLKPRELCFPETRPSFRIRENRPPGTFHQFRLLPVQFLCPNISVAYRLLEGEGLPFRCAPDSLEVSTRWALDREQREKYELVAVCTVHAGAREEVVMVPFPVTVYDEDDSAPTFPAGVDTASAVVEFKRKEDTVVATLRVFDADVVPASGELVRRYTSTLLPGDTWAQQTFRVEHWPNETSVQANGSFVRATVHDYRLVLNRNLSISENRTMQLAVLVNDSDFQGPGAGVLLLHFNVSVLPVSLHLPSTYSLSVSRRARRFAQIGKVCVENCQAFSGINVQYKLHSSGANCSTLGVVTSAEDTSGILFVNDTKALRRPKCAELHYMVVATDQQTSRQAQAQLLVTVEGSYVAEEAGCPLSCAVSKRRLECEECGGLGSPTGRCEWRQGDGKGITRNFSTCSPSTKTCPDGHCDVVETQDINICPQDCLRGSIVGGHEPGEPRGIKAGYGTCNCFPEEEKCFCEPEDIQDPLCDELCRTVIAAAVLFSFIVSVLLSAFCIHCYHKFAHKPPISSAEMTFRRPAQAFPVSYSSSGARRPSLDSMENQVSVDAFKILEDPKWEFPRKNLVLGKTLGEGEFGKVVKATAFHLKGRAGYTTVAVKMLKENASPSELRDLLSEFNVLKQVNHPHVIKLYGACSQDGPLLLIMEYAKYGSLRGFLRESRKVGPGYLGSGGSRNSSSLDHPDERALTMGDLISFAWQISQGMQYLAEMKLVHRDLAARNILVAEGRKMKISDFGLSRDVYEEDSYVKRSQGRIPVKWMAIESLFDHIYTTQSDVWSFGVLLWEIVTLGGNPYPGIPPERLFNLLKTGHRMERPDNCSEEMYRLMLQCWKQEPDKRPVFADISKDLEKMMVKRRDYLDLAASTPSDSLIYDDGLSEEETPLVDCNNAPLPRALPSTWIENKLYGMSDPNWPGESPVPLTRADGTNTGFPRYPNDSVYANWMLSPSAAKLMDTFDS
How it was run: as §1

[4] = target: T2, Ret^wt (Ba/F3) (Homo sapiens, UniProt P07949); assay: as above; type: cell-based; conditions: read-out: Ret^wt (Ba/F3) IC50
T2 construct: candidates are KIF5B, CCDC6, TEL (ETV6), or none (full-length RET)
T2 sequence (P07949 whole entry, change not shown): as the sequence (P07949 whole entry V804M, form open) above, with M804V counted along it
How it was run: as §1

[5] = test system: SK-MEL-28; assay: as above; type: cell-based; conditions: Homo sapiens
How it was run: as §1

[6] = test system: MDA-MB-231; assay: Real time cell proliferation, IncuCyte ZOOM, 72 hours; type: cell-based; conditions: Homo sapiens, MDA-MB-231, 72 h
[7] = test system: A375; assay: Cancer cell proliferation inhibition, CCK-8, 72 hours; type: cell-based; conditions: Homo sapiens, A-375, 72 h
How it was run: (§2)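 A375 cells (2×10^3/well) attached overnight, then received 9 three-fold dilutions (0.0015-10 μM). K562 and Ba/F3-T315I (1×10^4/well) were given 9-point series (3-fold and 5-fold respectively), final 0-10 μM. After 72 h at 37°C, CCK-8 was added for 2 h; blank-subtracted OD450 gave IC50.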

[8] = test system: K562; assay: as above; type: cell-based; conditions: Homo sapiens, K562, 72 h
How it was run: as §2

[9] = target: T3, T315I (Ba/F3) (Homo sapiens, UniProt P00519, T315I, cells depend on it); assay: as above; type: cell-based; conditions: read-out: T315I (Ba/F3) IC50
T3 construct: fused on or other part: P11274 (Breakpoint cluster region protein)
How it was run: as §2

[10] = test system: M-NFS-60; assay: as above; type: cell-based
How it was run: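 Cells were grown in RPMI with 10% FBS, 0.05 mM 2-mercaptoethanol and human M-CSF, and seeded at 20000 cells/well. Compounds were added from a 3-fold DMSO dilution series topping at 1968 nM (dilution-plate concentration; 11 points including DMSO control). After 72 h at 37 °C, CCK-8 was added for 2 h and OD450 read.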

[11] = test system: FYN (FN); assay: Cancer cell proliferation inhibition, MTS assay, 72 hours; type: cell-based
How it was run: as §1

[12] = test system: FYN (MCP-1); assay: as above; type: cell-based
How it was run: as §1

[13] = test system: RET (LC2/ad-CDC6); assay: as above; type: cell-based; conditions: 72 h
How it was run: as §1

[14] = target: T4, FGFR4 (Homo sapiens, UniProt P22455); assay: Enzyme inhibitory activity (Kd), Reaction Biology Co.; type: binding
T4 construct: purchased Reaction Biology Co
T4 sequence (P22455 22-802): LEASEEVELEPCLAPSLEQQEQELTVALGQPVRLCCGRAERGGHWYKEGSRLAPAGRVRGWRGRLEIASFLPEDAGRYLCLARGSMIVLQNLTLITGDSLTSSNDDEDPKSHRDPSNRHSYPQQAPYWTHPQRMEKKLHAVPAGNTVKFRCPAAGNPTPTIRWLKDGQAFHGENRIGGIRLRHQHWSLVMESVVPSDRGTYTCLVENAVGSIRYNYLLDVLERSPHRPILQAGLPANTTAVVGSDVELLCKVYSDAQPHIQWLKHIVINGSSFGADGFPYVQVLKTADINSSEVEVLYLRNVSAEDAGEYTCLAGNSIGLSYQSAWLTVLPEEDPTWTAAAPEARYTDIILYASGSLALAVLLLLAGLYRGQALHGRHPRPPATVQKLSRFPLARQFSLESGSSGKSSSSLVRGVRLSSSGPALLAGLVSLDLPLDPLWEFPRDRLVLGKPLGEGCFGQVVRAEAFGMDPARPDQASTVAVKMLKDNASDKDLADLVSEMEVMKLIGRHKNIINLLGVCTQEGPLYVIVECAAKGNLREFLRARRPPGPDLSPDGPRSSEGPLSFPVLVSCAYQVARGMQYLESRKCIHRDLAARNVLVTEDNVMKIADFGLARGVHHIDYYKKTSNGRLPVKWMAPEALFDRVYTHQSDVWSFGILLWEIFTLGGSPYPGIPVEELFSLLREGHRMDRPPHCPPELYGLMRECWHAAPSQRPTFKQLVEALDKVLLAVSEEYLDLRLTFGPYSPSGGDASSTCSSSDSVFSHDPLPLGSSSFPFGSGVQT
Procedure: (§3) The following experiment was performed to evaluate the enzyme inhibitory activity of the compound of the present invention.
(§4) Particularly, the enzyme inhibitory activity of the compound of the present invention against BLK, CDK11, CHEK1, CSF1R, EPHB6, FGFR4, FGR, FLT3, FYN, GCN2 (Kin.Dom.2, S808G), HCK, JAK2 (JH1domain-catalytic), LCK, LOK, LYN, RET, RET (V804M), SRC and YES was investigated by Reaction Biology Co. The results are shown in Table 2 below.

[15] = target: T5, RET (Homo sapiens, UniProt P07949); assay: as above; type: binding
T5 construct: purchased Reaction Biology Co
T5 sequence (P07949 29-1114): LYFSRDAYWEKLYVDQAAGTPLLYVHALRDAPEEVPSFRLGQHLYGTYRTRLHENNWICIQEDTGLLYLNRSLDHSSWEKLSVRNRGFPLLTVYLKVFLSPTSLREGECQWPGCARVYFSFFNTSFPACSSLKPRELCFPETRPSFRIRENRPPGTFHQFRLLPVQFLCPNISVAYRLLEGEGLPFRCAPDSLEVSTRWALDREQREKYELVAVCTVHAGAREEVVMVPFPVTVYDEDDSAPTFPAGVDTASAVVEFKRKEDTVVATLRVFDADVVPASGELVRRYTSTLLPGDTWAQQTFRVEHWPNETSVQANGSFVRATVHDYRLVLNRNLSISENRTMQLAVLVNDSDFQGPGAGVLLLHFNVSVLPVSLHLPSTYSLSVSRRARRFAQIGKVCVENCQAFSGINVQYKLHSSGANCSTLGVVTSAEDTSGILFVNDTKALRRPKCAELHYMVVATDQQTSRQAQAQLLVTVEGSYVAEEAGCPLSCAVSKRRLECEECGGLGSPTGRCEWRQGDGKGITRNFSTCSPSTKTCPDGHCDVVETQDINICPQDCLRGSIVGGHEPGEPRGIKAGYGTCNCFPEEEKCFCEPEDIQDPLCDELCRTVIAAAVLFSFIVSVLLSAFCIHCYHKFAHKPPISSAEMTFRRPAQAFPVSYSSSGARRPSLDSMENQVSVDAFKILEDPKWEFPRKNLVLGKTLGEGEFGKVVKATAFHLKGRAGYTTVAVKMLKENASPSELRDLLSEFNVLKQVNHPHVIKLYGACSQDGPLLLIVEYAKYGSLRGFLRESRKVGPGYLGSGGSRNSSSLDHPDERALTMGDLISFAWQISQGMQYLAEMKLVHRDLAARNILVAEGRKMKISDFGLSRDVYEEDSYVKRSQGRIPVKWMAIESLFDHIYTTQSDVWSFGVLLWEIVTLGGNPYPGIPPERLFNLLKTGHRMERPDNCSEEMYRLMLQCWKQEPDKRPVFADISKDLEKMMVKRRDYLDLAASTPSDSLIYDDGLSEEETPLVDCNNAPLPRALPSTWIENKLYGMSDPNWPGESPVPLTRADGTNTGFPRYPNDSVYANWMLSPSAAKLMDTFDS
Procedure: as §3, §4

[16] = target: T6, RET(V804M) (Homo sapiens, UniProt P07949, V804M); assay: as above; type: binding
T6 construct: purchased Reaction Biology Co
T6 sequence (P07949 29-1114 V804M): as the sequence (P07949 29-1114) above, with V776M counted along it
Procedure: as §3, §4

Structure (SMILES) | IC50 [1] [nM] | GI50 [3] [nM] | GI50 [4] [nM] | IC50 [5] [nM] | IC50 [6] [nM] | IC50 [7] [nM] | IC50 [8] [nM] | GI50 [9] [nM] | IC50 [10] [nM] | IC50 [11] [nM] | IC50 [12] [µM] | IC50 [13] [nM] | Kd [14] [nM] | Kd [15] [nM] | Kd [16] [nM] | IC50 [2] [nM]
Cc1ccc(C(=O)Nc2ccc(Cl)cc2)cc1C#Cc1cnc2c(Nc3cnn(C)c3)cccn12 [Example 7, N-(4-chlorophenyl)-4-methyl-3-((8-((1-methyl-1H-pyrazol-4-yl)amino)imidazo[1,2-a]pyridin-3-yl)ethynyl)benzamide] | 4800 | 1920 | 798 | 6210 | > 10000 | 6210 | 2 | > 10000 | – | – | – | – | – | – | – | 7500
Cc1ccc(C(=O)Nc2cccc(C(F)(F)F)c2)cc1C#Cc1cnc2c(Nc3cnn(C)c3)cccn12 [Example 13, 4-methyl-3-((8-((1-methyl-1H-pyrazol-4-yl)amino)imidazo[1,2-a]pyridin-3-yl)ethynyl)-N-(3-(trifluoromethyl)phenyl)benzamide] | 309 | 172 | 16 | 2220 | 1580 | 1500 | < 1 | 7.06 | 46.4 | < 1000 | < 1 | < 100 | – | – | – | –
Cc1ccc(C(=O)Nc2ccc(CN3CCC(N(C)C)C3)c(C(F)(F)F)c2)cc1C#Cc1cnc2c(Nc3cnn(C(C)C)c3)cccn12 (centres unmarked) [Example 30, N-(4-((3-(dimethylamino)pyrrolidin-1-yl)methyl)-3-(trifluoromethyl)phenyl)-3-((8-((1-isopropyl-1H-pyrazol-4-yl)amino)imidazo[1,2-a]pyridin-3-yl)ethynyl)-4-methylbenzamide] | 17 | – | – | 1110 | 1380 | 758 | < 1 | 126 | – | – | 7.79 | 100 | 190 | 9.3 | 13 | –

Now from value to molecule, other results behind:

IC50 [1] [nM] | GI50 [3] [nM] | GI50 [4] [nM] | IC50 [5] [nM] | IC50 [6] [nM] | IC50 [7] [nM] | IC50 [8] [nM] | GI50 [9] [nM] | IC50 [10] [nM] | IC50 [11] [nM] | IC50 [12] [µM] | IC50 [13] [nM] | Kd [14] [nM] | Kd [15] [nM] | Kd [16] [nM] | Structure (SMILES) | IC50 [2] [nM]
127 | 23 | 4 | 792 | 288 | 259 | < 1 | 37.1 | 170 | < 100 | < 0.1 | – | – | – | – | CCN1CCN(Cc2ccc(NC(=O)c3ccc(C)c(C#Cc4cnc5c(Nc6ccn(C)n6)cccn45)c3)cc2C(F)(F)F)CC1 [Example 10, N-(4-((4-ethylpiperazin-1-yl)methyl)-3-(trifluoromethyl)phenyl)-4-methyl-3-((8-((1-methyl-1H-pyrazol-3-yl)amino)imidazo[1,2-a]pyridin-3-yl)ethynyl)benzamide] | 2520
53.7 | 22 | 9 | 1440 | 624 | 390 | 7 | 135 | 198 | < 100 | < 0.1 | < 100 | 73 | 12 | 24 | Cc1ccc(C(=O)Nc2ccc(CN3CCN(C)CC3)c(C(F)(F)F)c2)cc1C#Cc1cnc2c(Nc3cnn(C(C)C)c3)cccn12 [Example 14, 3-((8-((1-isopropyl-1H-pyrazol-4-yl)amino)imidazo[1,2-a]pyridin-3-yl)ethynyl)-4-methyl-N-(4-((4-methylpiperazin-1-yl)methyl)-3-(trifluoromethyl)phenyl)benzamide] | 1830
67 | 18 | 6 | 1170 | 569 | 297 | 3 | 47.4 | – | < 100 | < 0.1 | > 10 | 130 | 16 | 17 | CCN1CCN(Cc2ccc(NC(=O)c3ccc(C)c(C#Cc4cnc5c(Nc6cnn(C(C)C)c6)cccn45)c3)cc2C(F)(F)F)CC1 [Example 15, N-(4-((4-ethylpiperazin-1-yl)methyl)-3-(trifluoromethyl)phenyl)-3-((8-((1-isopropyl-1H-pyrazol-4-yl)amino)imidazo[1,2-a]pyridin-3-yl)ethynyl)-4-methylbenzamide] | 2160
9860 | 13000 | 320 | 1840 | 1620 | > 10000 | 76 | 54.5 | – | < 10000 | < 10 | < 1000 | – | – | – | Cc1ccc(C(=O)Nc2ccc(CN3CCN(C)CC3)c(C(F)(F)F)c2)cc1C#Cc1cnc2c(Nc3ncccc3F)cccn12 [Example 16, 3-((8-((3-fluoropyridin-2-yl)amino)imidazo[1,2-a]pyridin-3-yl)ethynyl)-4-methyl-N-(4-((4-methylpiperazin-1-yl)methyl)-3-(trifluoromethyl)phenyl)benzamide] | –
24 | – | – | 1920 | 1300 | 830 | < 1 | 158 | 119 | – | 3.13 | < 100 | 82 | 7.9 | 12 | Cc1ccc(C(=O)Nc2ccc(CN3CCN(C)CC3)c(C(F)(F)F)c2)cc1C#Cc1cnc2c(Nc3cnn(CCCN(C)C)c3)cccn12 [Example 26, 3-((8-((1-(3-(dimethylamino)propyl)-1H-pyrazol-4-yl)amino)imidazo[1,2-a]pyridin-3-yl)ethynyl)-4-methyl-N-(4-((4-methylpiperazin-1-yl)methyl)-3-(trifluoromethyl)phenyl)benzamide] | –
